Experimental data taken from US8093288B2, “Genipin derivatives and uses thereof” (Beth Israel Deaconess Medical Center, priority 2003, dated 2012).

Columns and labels:
UCP2 KO mice = experiment: Serum insulin in vivo after genipin injection in UCP2 KO mice; conditions: genipin 10 mg/kg injected, FIGS. 13A, 13B
Description: UCP2-deficient mice have increased serum insulin levels. Genipin inhibits UCP2 activity, and thus should stimulate insulin secretion acutely in vivo. In the present study, the effect of genipin on insulin secretion in vivo was assessed. WT and UCP2 KO mice were fed a chow diet (FIG. 13A), or placed on a high fat diet (HFD) (FIG. 13B) (#D12331, obtained from Research Diets Inc., New Brunswick, N.J.). The fat source was coconut oil and comprised 58% of the total calories. The mice remained on the HFD for 24 weeks. Both WT and KO mice were obese (50-60 g). ob/ob mice (FIG. 13C) were obtained from The Jackson Laboratory. After 6 hours (FIG. 13A) or 20 hours (FIGS. 13B and 13C) of fasting, genipin (10 mg/kg (FIGS. 13A and 13B), or 20 mg/kg (FIG. 13C)) was injected into the mice. Serum insulin levels were measured before and after administration of genipin as indicated.

ob/ob islets = experiment: Glucose-stimulated insulin secretion in islets from ob/ob mice; format: cell-based; conditions: 5 μM genipin acutely added, FIG. 12C
Description: Pancreatic islets were isolated from WT (FIG. 12A) or UCP2 KO mice (FIG. 12B) and subjected to chronic incubations at low (5.5 mM) and high glucose (25 mM). In a separate experiment, islets were isolated from ob/ob mice (FIG. 12C). Islets were incubated for a total of 72 hours and washed, and then insulin-secretion studies were performed using three different concentrations of glucose (5.5, 12.5, and 25 mM) with or without 5 μM genipin. Results are means±SEM of four independent experiments (FIGS. 12A and 12B) or eight to twenty repeats of one representative experiment (FIG. 12C). WT islets that were chronically incubated at low glucose released increasing amounts of insulin in response to increasing concentrations of glucose (FIG. 12A, left panel). Following chronic hyperglycemia, islets increased basal insulin release, but were completely unresponsive to glucose stimulation (FIG. 12A, middle panel). […] To assess the role of genipin in hyperglycemia-induced loss of glucose responsiveness, genipin was acutely added into islets during the insulin-release phase of the study. […] Insulin secretion in islets from ob/ob mice and ob/ob mice lacking UCP2 with or without genipin was also studied. It has been reported that in ob/ob islets, UCP2 expression levels are increased compared to WT islets. […]

[1] = system: high fat diet-fed wildtype mice; experiment: Blood glucose and insulin after genipin injection in high fat diet-fed wildtype mice; format: in vivo; conditions: high fat diet 24 weeks, 20 hours fasting, 300 μg genipin injected, thirty minutes after injection
Description: Wildtype and UCP2 knockout mice were placed on a high fat diet obtained from Research Diets Inc., New Brunswick, N.J. (cat. no. D12331, HFD). The fat source was coconut oil and comprised 58% of the total calories. The mice remained on the high fat diet for 24 weeks. After the 24 weeks, both the wildtype and the UCP2 knockout mice were obese (about 50-60 g). After 20 hours of fasting, the blood glucose and insulin levels of the mice were measured, then the mice were injected with 300 μg of genipin. Thirty minutes after injection the blood glucose and insulin levels of the mice were measured again. Blood glucose levels were assessed using a glucometer (One touch, Lifescan, Milpitas, Calif.). Serum insulin concentrations were assessed using mouse insulin as a standard (Rat Insulin ELISA Kit. cat. #INSKR020 Crystal Chem. Inc., Chicago, Ill.). […] A comparison of the effect of genipin on the blood glucose levels and insulin levels in wildtype and UCP2 knockout mice can be seen in FIGS. 7 and 10, respectively.

WT islets = experiment: Glucose-stimulated insulin secretion in WT islets after chronic hyperglycemia; format: cell-based, mice; conditions: WT islets after 72 hours at 25 mM glucose; 5 μM genipin acutely added; 5.5, 12.5, 25 mM glucose; FIG. 12A
Description: Pancreatic islets were isolated from WT (FIG. 12A) or UCP2 KO mice (FIG. 12B) and subjected to chronic incubations at low (5.5 mM) and high glucose (25 mM). In a separate experiment, islets were isolated from ob/ob mice (FIG. 12C). Islets were incubated for a total of 72 hours and washed, and then insulin-secretion studies were performed using three different concentrations of glucose (5.5, 12.5, and 25 mM) with or without 5 μM genipin. Results are means±SEM of four independent experiments (FIGS. 12A and 12B) or eight to twenty repeats of one representative experiment (FIG. 12C). WT islets that were chronically incubated at low glucose released increasing amounts of insulin in response to increasing concentrations of glucose (FIG. 12A, left panel). Following chronic hyperglycemia, islets increased basal insulin release, but were completely unresponsive to glucose stimulation (FIG. 12A, middle panel). […] To assess the role of genipin in hyperglycemia-induced loss of glucose responsiveness, genipin was acutely added into islets during the insulin-release phase of the study.

UCP2 = biological target: T1, UCP2 (Mus musculus, UniProt P70406); experiment: Proton leak titration in isolated kidney mitochondria of wildtype mice with superoxide-generating system; format: biochemical; conditions: 50 μM genipin with 50 mM xanthine and 0.2 mU/3.5 mL xanthine oxidase, FIG. 2
T1 construct: Wildtype and UCP2 knockout mice were used for isolation of kidney mitochondria; from tissue; host or cells: kidney mitochondria of wildtype mice
T1 sequence (P70406 1-309): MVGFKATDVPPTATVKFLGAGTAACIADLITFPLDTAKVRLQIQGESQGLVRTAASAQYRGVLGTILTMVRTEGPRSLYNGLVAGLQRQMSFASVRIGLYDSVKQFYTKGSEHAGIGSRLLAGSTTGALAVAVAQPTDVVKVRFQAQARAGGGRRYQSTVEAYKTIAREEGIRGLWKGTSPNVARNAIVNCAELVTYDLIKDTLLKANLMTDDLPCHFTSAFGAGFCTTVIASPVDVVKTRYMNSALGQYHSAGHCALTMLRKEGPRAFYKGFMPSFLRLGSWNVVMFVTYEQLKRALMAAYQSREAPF

## COC(=O)C1=CO[C@@H](O)[C@@H]2C(CO)=CC[C@H]12 [genipin]
UCP2 KO mice
  serum insulin levels: no effect on insulin levels
ob/ob islets
  glucose sensing (glucose-stimulated insulin secretion): restored glucose sensing
[1]; FIG. 5
  blood glucose levels: significantly lowered blood glucose
[1]; FIG. 8
  blood insulin levels: dramatically increase the blood insulin levels
WT islets
  glucose-stimulated insulin secretion (GSIS): prevented the hyperglycemia-induced block in GSIS
UCP2
  rate of proton leak as a function of mitochondrial membrane potential: proton leak occurred at nearly the same mitochondria membrane potential as in the control
